From US20240173425A1, “HUMAN CD33 ANTIBODIES AND GLUCOCORTICOID CONJUGATES” (Eli Lilly and Company, priority 2022, published 2024)
Where two headings read alike, the source gives them in different places. Marks after values point to notes of the source that are not given here.

Experiments:
human PBMCs = assay: Proinflammatory cytokine modulation in LPS-stimulated PBMCs; format: cell-based; conditions: PBMC, 200 nM, LPS 100 pg/mL, 24 hours
Experimental: PBMCs were used to mimic in vivo conditions. […] The cells were then stimulated with LPS (Sigma cat. L2880) at 100 pg/mL in a 37° C. incubator for 24 hours. Culture supernatants were collected to measure the indicated cytokines (Proinflammatory Panel II (human) 4-Plex kits, MSD, K15053D-2).

[1] = tested on: human plasmacytoid dendritic cells (pDCs); assay: Plasmacytoid dendritic cell differentiation assay; format: cell-based; conditions: human PBMCs, IL-3 supplemented media, CpG stimulation
Experimental: The differentiation of pDC was measured by flow cytometry. The functional effects of the pDC were measured by type I IFN (IFNα) production.

[2] = tested on: oxazolone-induced skin inflammation; assay: Oxazolone-induced contact hypersensitivity in humanized mouse model (HuNOG-EXL); format: in vivo; conditions: Challenge 3, 3 mg/kg SC 1 hour prior to sensitization and each challenge
Experimental: (§1) Briefly, huNOG-EXL mice were engrafted at 6 weeks of age with human CD34+ hematopoietic stem cells isolated from human cord blood. 20-24 weeks after stem cell administration the mice were assessed for human CD45 engraftment (>25% in blood) and subjected to an oxazolone-induced contact hypersensitivity protocol. […] 24 hours (Day 1) post administration, the mice were anesthetized with 5% isoflurane, their abdomens shaved, and sensitized with 100 μL of 3% oxazolone in ethanol (applied to the shaved area). Mice were dosed again on Day 4, 11, and 16 as above, and challenged with 2% oxazolone in ethanol on both ears (10 μL/side/ear) 48 hours post each dose (Day 6—Challenge 1, Day 13—Challenge 2, and Day 18—Challenge 3). For the GC1 alone group, mice were dosed with 3 mg/kg SC 1 hour prior to sensitization and prior to each challenge. Upon final challenge, mice were euthanized, and ear tissue and the gastrocnemius was collected for analysis of target selective and non-target selective tissue expression of GC regulated genes.

FKBP5 gene expression = assay: GC regulated gene expression in tissues of the contact hypersensitivity model; format: in vivo, mouse; conditions: 3 mg/kg
Experimental: as §1

SMILES: Cc1ccc(OCc2cccc(N)c2)c(F)c1[C@H]1O[C@@H]2C[C@H]3[C@@H]4CCC5=CC(=O)C=C[C@]5(C)[C@H]4[C@@H](O)C[C@]3(C)[C@]2(C(=O)CO)O1 (single isomer, unassigned) [GC1]
- inhibition at 0.2 µM (human PBMCs; read-out: % Inhibition of human IL-6 secretion at 200 nM): 83.9 ± 2.81%
- inhibition at 0.2 µM (human PBMCs; read-out: % Inhibition of human TNFa secretion at 200 nM): 85.1 ± 3.28%
- % Inhibition of human IFNα secretion [1]: 97.18 ± 2.95%
- % Inhibition of pDC cell differentiation ([1]; flow cytometry): 95.50 ± 8.32%
- Δ Ear thickness, Mean [2]: 0.018*^ mm
- Fold increase in FKBP5 gene expression compared to Isotype, Gastrocnemius, Mean (FKBP5 gene expression; non-targeted tissue (Gastrocnemius)): 3.958
- Fold increase in FKBP5 gene expression compared to Isotype, Ear, Mean (FKBP5 gene expression; targeted tissue (Ear)): 4.505
